From US11859014B2, “Peptidomimetics for the treatment of Norovirus infection” (EMORY UNIVERSITY, priority 2016, dated 2024)

How the values were obtained:
[1] = system: NoV replicon RNA in HG23 cells (derived from Huh-7 cells); assay: Norwalk virus replicon assay in HG23 cells; assay type: cell-based; settings: 120 h, five days incubation; for EC50: read-out: Anti-NoV activity (μM) EC50; for EC90: read-out: Anti-NoV activity (μM) EC90
Experimental: Norwalk virus replicon assays were performed as reported by Constantini et al. (Antivir Ther 2012, 17, 981-991). HG23 cells (derived from Huh-7 cells) containing NoV replicon RNA are seeded at a density of 3,000 cells/well in 96-well plates and incubated at 37° C. and 5% CO2 overnight. Compounds were tested at concentrations ranging from 0.1 to 100 μM. Compounds were added in triplicate to 80 to 90% confluent monolayers and incubated at 37° C. and 5% CO2. Untreated cells were included in each plate. Following five days incubation (37° C., 5% CO2), total cellular RNA was isolated with RNeasy96 extraction kit from Qiagen. Replicon RNA and an internal control (TaqMan rRNA control reagents, Applied Biosystems) were amplified in a single step.
The median effective concentrations (EC50) ranges of several of the compounds described herein against NoV are shown in Table 3: […]

[2] = Cellular toxicity assay in Vero cells; assay type: cell-based; settings: African green monkey, read-out: Cytotoxicity, CC50 (μM) VERO
Experimental: (§1) The toxicity of the compounds was assessed in Vero, human PBM, CEM (human lymphoblastoid), MT-2, and HepG2 cells, as described previously (see Schinazi R. F., Sommadossi J.-P., Saalmann V., Cannon D. L., Xie M.-Y., Hart G. C., Smith G. A. & Hahn E. F. Antimicrob. Agents Chemother. 1990, 34, 1061-67). Cycloheximide was included as positive cytotoxic control, and untreated cells exposed to solvent were included as negative controls. The cytotoxicity CC50 was obtained from the concentration-response curve using the median effective method described previously (see Chou T.-C. & Talalay P. Adv. Enzyme Regul. 1984, 22, 27-55; Belen'kii M. S. & Schinazi R. F. Antiviral Res. 1994, 25, 1-11).

[3] = Cellular toxicity assay in Huh7 cells; assay type: cell-based; settings: human, read-out: Cytotoxicity, CC50 (μM) Huh7
Experimental: [The procedure below names another cell line; the source lists this cell line under the same test.] as §1

[4] = Cellular toxicity assay in CEM cells; assay type: cell-based; settings: human, read-out: Cytotoxicity, CC50 (μM) CEM
Experimental: as §1

[5] = Cellular toxicity assay in PBM cells; assay type: cell-based; settings: human, read-out: Cytotoxicity, CC50 (μM) PBM
Experimental: as §1

[6] = target: Norovirus GI.1 (Norwalk virus) protease (Norovirus (strain Human/NoV/United States/Norwalk/1968/GI) (Hu/NV/NV/1968/US), UniProt Q83883); assay: FRET based enzyme assay, Norovirus GI.1 protease; assay type: biochemical; settings: 37° C.
Norovirus GI.1 (Norwalk virus) protease, sequence (Q83883 1101-1281): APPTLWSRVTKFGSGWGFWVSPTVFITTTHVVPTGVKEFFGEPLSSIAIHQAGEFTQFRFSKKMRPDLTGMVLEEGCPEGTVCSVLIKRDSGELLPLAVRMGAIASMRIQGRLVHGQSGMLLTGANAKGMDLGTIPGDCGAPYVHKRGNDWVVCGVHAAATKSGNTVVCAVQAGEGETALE
Experimental: Norovirus GI.1 (Norwalk virus) protease were tested for enzymatic activity using a fluorescence resonance energy transfer (FRET) based enzyme assay. Norovirus GI.1 represents 5 to 10% of the clinical isolates. The FRET kinetic enzyme assays were performed as follows. The purified viral protease was diluted in reaction buffer (50 mM HEPES, pH 8.0, 120 mM NaCl, 0.4 mM EDTA, 20% glycerol, and 4 mM DTT) to a final concentration of 128 nM. Each reaction was initiated by addition of FRET substrate [(HiLyte Fluor 488) -[…]-(QXL520)]. To determine kinetic parameters, the FRET substrate was serially diluted to final concentrations of 100 μM to 49 nM and added to the reaction. The final reaction volume was 100 μL. The fluorescence emitted by substrate cleavage was monitored by a microplate reader (SpectraMax M5, Molecular Devices, Sunnyvale, CA, USA) at a 488 nm excitation wavelength with an emission wavelength of 520 nm. Readings were taken every minute for 20 minutes, and the reactions were performed at 37° C. In order to convert RFU into μM, a standard curve was created by measuring fluorescence of free HiLyte Fluor 488, which was serially diluted from 250 nM to 3.9 nM. All data were plotted and analyzed with GraphPad Prism v. 6.07.

Minerva virus protease = Minerva virus protease (Norovirus GII.4 (Minerva virus), UniProt P54634); assay: FRET enzyme kinetic assay, NoV GII.4 Minerva virus protease; assay type: biochemical; settings: Minerva virus (GII.4) protease; inhibitor incubated with enzyme 90 minutes at 37° C. before FRET substrate
Minerva virus protease, sequence (P54634 whole entry, looked up): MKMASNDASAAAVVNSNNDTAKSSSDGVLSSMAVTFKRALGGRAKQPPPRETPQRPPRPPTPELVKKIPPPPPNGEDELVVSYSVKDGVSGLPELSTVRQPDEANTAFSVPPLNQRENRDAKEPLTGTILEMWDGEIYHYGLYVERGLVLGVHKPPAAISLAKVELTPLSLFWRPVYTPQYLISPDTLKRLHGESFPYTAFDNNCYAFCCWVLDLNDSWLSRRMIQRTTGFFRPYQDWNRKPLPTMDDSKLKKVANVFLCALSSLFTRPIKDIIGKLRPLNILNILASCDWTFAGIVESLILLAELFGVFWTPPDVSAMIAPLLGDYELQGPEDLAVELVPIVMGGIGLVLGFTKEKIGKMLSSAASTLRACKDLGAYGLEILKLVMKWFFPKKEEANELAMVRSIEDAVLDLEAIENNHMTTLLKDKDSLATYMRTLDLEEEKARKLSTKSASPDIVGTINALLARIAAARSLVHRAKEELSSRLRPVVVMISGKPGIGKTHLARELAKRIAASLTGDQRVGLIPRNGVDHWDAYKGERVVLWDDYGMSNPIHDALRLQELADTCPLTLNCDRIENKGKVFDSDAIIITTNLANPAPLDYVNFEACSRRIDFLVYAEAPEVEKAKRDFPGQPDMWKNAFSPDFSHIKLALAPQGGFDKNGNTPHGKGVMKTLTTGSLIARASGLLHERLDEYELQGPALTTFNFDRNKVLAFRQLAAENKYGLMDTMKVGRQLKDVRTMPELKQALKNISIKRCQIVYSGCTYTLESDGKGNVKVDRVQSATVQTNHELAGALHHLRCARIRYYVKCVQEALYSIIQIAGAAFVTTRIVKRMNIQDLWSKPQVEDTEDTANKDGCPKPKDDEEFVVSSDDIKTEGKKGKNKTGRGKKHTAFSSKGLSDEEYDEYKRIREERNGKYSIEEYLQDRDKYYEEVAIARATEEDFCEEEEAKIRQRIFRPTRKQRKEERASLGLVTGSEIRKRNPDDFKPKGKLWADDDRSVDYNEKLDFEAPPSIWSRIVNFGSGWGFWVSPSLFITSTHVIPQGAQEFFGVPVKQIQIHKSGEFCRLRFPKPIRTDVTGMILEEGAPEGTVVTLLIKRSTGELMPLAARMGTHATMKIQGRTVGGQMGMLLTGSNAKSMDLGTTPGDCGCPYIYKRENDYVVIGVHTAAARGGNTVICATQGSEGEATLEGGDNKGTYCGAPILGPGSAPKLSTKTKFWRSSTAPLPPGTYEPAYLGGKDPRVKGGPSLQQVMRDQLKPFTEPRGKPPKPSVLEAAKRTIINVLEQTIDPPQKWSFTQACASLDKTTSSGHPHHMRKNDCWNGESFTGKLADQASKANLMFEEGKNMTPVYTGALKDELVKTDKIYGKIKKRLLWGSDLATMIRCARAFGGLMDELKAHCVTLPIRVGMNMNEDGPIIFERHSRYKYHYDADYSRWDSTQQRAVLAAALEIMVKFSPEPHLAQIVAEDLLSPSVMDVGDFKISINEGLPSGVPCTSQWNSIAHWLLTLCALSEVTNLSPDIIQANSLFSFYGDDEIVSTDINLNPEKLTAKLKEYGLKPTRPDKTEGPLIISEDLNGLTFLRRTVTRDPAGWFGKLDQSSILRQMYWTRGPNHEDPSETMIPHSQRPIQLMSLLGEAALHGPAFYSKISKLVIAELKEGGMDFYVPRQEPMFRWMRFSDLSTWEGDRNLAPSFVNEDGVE
Experimental: The ability of these compounds to inhibit the NoV, specifically Minerva virus protease catalytic Cys139 covalently (IC50 and Ki) was determined with an enzyme kinetic assay. NoV strains, specifically GII.4 such as the Minerva virus are responsible for causing the majority (˜80%) of infections in humans. The activity of the inhibitors was evaluated by monitoring the cleavage of a FRET substrate every one minute for 20 minutes (excitation/emission: 488/520 nm) using a SpectraMax M5 microplate reader (Molecular Devices, Sunnyvale CA). Serial dilutions of each inhibitor were incubated with enzyme for 90 minutes at 37° C. before addition of the FRET substrate to ensure complete inactivation. Commercially available protease inhibitors chymostatin and rupintrivir were used as controls.

## CC(C)C[C@H](NC(=O)[C@H](Cc1ccc(O)cc1)NC(=O)OCc1ccccc1)C(=O)N[C@H](C=O)C[C@@H]1CCCNC1=O [Compound 11, Benzyl ((S)-3-(4-hydroxyphenyl)-1-(((S)-4-methyl-1-oxo-1-(((S)-1-oxo-3-((S)-2-oxopiperidin-3-yl)propan-2-yl)amino)pentan-2-v)amino)-1-oxopropan-2-yl)carbamate]
[1]
  EC50: 0.7 µM
  EC90: 2.4 µM
[2]
  CC50: > 100 µM
[3]
  CC50: > 10 µM
[4]
  CC50: > 100 µM
[5]
  CC50: > 100 µM

## CC(C)C[C@H](NC(=O)[C@H](Cc1cccc2ccccc12)NC(=O)OCc1ccccc1)C(=O)N[C@H](C=O)C[C@@H]1CCCNC1=O [Compound 19]
[1]
  EC50: 0.07 µM
  EC90: 0.27 µM
[2]
  CC50: 20 µM
[3]
  CC50: > 10 µM
[4]
  CC50: 32 µM
[5]
  CC50: 24 µM

## CC(C)C[C@H](NC(=O)[C@H](Cc1cccc2ccccc12)NC(=O)c1cnccn1)C(=O)N[C@H](C=O)C[C@@H]1CCCNC1=O [Compound 23]
[1]
  EC50: 0.07 µM
  EC90: 0.33 µM
[2]
  CC50: > 100 µM
[3]
  CC50: > 10 µM
[4]
  CC50: 39 µM
[5]
  CC50: > 100 µM

## CC(C)C[C@H](NC(=O)[C@H](Cc1cccc2ccccc12)NC(=O)c1cnccn1)C(=O)N[C@H](C=O)C[C@@H]1CCNC1=O [Compound 29]
[1]
  EC50: 0.08 µM
  EC90: 0.46 µM
[2]
  CC50: > 100 µM
[3]
  CC50: > 10 µM
[4]
  CC50: 38 µM
[5]
  CC50: > 100 µM

## CC(C)C[C@H](NC(=O)[C@H](Cc1ccc(F)cc1)NC(=O)OCc1ccccc1)C(=O)N[C@H](C=O)C[C@@H]1CCCNC1=O [Compound 35, Benzyl ((S)-3-(4-fluorophenyl)-1-(((S)-4-methyl-1-oxo-1-(((S)-1-oxo-3-((S)-2-oxopiperidin-3-yl)propan-2-yl)amino)pentan-2-yl)amino)-1-oxopropan-2-yl)carbamate]
[6]
  IC50: 0.096 ± 0.011 µM
  Ki: 0.465 ± 0.201 µM
[2]
  CC50: > 100 µM
[3]
  CC50: 60 µM
[4]; CEM lymphoblastoid cells
  CC50: 35 µM
[5]
  CC50: 52 µM

## CC(C)C[C@H](NC(=O)[C@H](Cc1cccc2ccccc12)NC(=O)OCc1ccccc1)C(=O)N[C@H](/C=C(\C#N)C(N)=O)C[C@@H]1CCCNC1=O [Compound 36, Benzyl ((S)-1-(((S)-1-(((S,E)-5-amino-4-cyano-5-oxo-1-((S)-2-oxopiperidin-3-yl)pent-3-en-2-yl)amino)-4-methyl-1-oxopentan-2-yl)amino)-3-(naphthalen-1-yl)-1-oxopropan-2-yl)carbamate]
[6]
  IC50: 0.593 ± 0.124 µM
  Ki: 1.7 ± 0.332 µM
[2]
  CC50: > 100 µM
[3]
  CC50: 8 µM
Minerva virus protease
  IC50: 1.17 ± 0.333 µM
[4]
  CC50: 9 µM
[5]
  CC50: 45 µM

## CC(C)C[C@H](NC(=O)[C@H](Cc1cccc2ccccc12)NC(=O)OCc1ccccc1)C(=O)N[C@@H](C[C@@H]1CCCNC1=O)C(O)S(=O)(=O)O (stereo partly drawn) [Compound 37, Sodium (5S,8S,11S)-12-hydroxy-8-isobutyl-5-(naphthalen-1-ylmethyl)-3,6,9-trioxo-11-(((S)-2-oxopiperidin-3-yl)methyl)-1-phenyl-2-oxa-4,7,10-triazadodecane-12-sulfonate]
[6]
  IC50: 0.654 ± 0.285 µM
  Ki: 2.24 ± 0.438 µM
[2]
  CC50: > 100 µM
[3]
  CC50: 11 µM
Minerva virus protease
  IC50: 2.63 ± 1.04 µM
[4]
  CC50: 18 µM
[5]
  CC50: 44 µM

## CC(C)C[C@H](NC(=O)[C@H](Cc1cccc2ccccc12)NC(=O)OCc1ccccc1)C(=O)N[C@@H](C[C@@H]1CCCNC1=O)C(O)C(F)(F)F (stereo partly drawn) [Compound 38, Benzyl ((2S)-1-(((2S)-4-methyl-1-oxo-1-(((2S)-4,4,4-trifluoro-3-hydroxy-1-((S)-2-oxopiperidin-3-yl)butan-2-yl)amino)pentan-2-yl)amino)-3-(naphthalen-1-yl)-1-oxopropan-2-yl)carbamate]
[6]
  IC50: > 10 µM
[2]
  CC50: 22 µM
[3]
  CC50: 13 µM
[4]; CEM lymphoblastoid cells
  CC50: 6 µM
[5]
  CC50: 18 µM

## CC(C)C[C@H](NC(=O)[C@H](Cc1cccc2ccccc12)NC(=O)OCc1ccccc1)C(=O)N[C@@H](C[C@@H]1CCCNC1=O)C(=O)C(F)(F)F [Compound 39, Benzyl ((S)-1-(((S)-4-methyl-1-oxo-1-(((S)-4,4,4-trifluoro-3-oxo-1-((S)-2-oxopiperidin-3-yl)butan-2-yl)amino)pentan-2-yl)amino)-3-(naphthalen-1-yl)-1-oxopropan-2-yl)carbamate]
[6]
  IC50: > 10 µM
[2]
  CC50: 11 µM
[3]
  CC50: 14 µM
[4]
  CC50: 2 µM
[5]
  CC50: 39 µM

## CC(C)C[C@H](NC(=O)[C@H](Cc1cccc2ccccc12)NC(=O)OCc1ccccc1)C(=O)N[C@H](/C=C/C=O)C[C@@H]1CCNC1=O [Compound 64, Benzyl ((S)-1-(((S)-4-methyl-1-oxo-1-(((S,E)-5-oxo-1-((S)-2-oxopyrrolidin-3-yl)pent-3-en-2-yl)amino)pentan-2-yl)amino)-3-(naphthalen-1-yl)-1-oxopropan-2-yl)carbamate]
[6]
  IC50: 10 µM

## CC(C)C[C@H](NC(=O)[C@H](Cc1cccc2ccccc12)NC(=O)OCc1ccccc1)C(=O)N[C@@H](C[C@@H]1CCNC1=O)C1OC1S(C)(=O)=O (stereo partly drawn) [Compound 67, Benzyl ((2S)-1-(((2S)-4-methyl-1-(((1S)-1-(3-(methylsulfonyl)oxiran-2-yl)-2-((S)-2-oxopyrrolidin-3-yl)ethyl)amino)-1-oxopentan-2-yl)amino)-3-(naphthalen-1-yl)-1-oxopropan-2-yl)carbamate]
[6]
  IC50: > 10 µM
[1]
  EC50: 4.33 µM
  EC90: > 20 µM
[2]
  CC50: > 100 µM
[4]
  CC50: 64 µM
[5]
  CC50: > 100 µM

## O=C[C@H](C[C@@H]1CCCNC1=O)NC(=O)[C@H](Cc1ccccc1)NC(=O)[C@H](Cc1cccc2ccccc12)NC(=O)OCc1ccccc1 [Compound 83, Benzyl ((S)-3-(naphthalen-1-yl)-1-oxo-1-(((S)-1-oxo-1-(((S)-1-oxo-3-((S)-2-oxopiperidin-3-yl)propan-2-yl)amino)-3-phenylpropan-2-yl)amino)propan-2-yl)carbamate]
[6]
  IC50: 0.084 ± 0.019 µM
  Ki: 0.256 ± 0.057 µM
[1]
  EC50: 0.33 µM
  EC90: 0.91 µM
[2]
  CC50: 41.2 µM
[4]; CEM lymphoblastoid cells
  CC50: 17 µM
[5]
  CC50: 48.7 µM

## O=C(N[C@@H](Cc1cccc2ccccc12)C(=O)N[C@@H](Cc1ccccc1)C(=O)N[C@H](CCl)C[C@@H]1CCCNC1=O)OCc1ccccc1 [Compound 84, Benzyl ((S)-1-(((S)-1-(((S)-1-chloro-3-((S)-2-oxopiperidin-3-yl)propan-2-yl)amino)-1-oxo-3-phenylpropan-2-yl)amino)-3-(naphthalen-1-yl)-1-oxopropan-2-yl)carbamate]
[6]
  IC50: > 100 µM
[1]
  EC50: > 10 µM
[2]
  CC50: 51.7 µM
[4]; CEM lymphoblastoid cells
  CC50: 26.6 µM
[5]
  CC50: 75 µM
